Data taken from US8163766B2, “Beta-secretase modulators and methods of use” (Amgen Inc., priority 2005, dated 2012).

system: Aβ 40 in conditioned media of cells stably expressing Amyloid Precursor Protein (APP); assay: BACE Cell-Based Assay (Aβ40 in conditioned medium, sandwich ELISA); conditions: 24 hours of incubation with the test compounds, Aβ 40 by sandwich ELISA, read-out: IC50 values in the cell-based assay (inhibition of Aβ 40)
How it was run: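 IC50 derived from Aβ40 reduction in supernatants, quantified by europium time-resolved fluorescence ELISA with pAb40/biotin-6E10 antibodies incubated at 4°C. Cells stably expressing APP received compound for 24 h, ten concentrations from 100 μM or 10 μM top, final DMSO 0.1%.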

IC50, ≤ 5 µM:
CCc1ccc2c(c1)[C@@H](NC[C@@H](O)[C@H](Cc1csc(C)n1)NC(=O)c1cc(-c3ccccn3)c(=O)n(C3CCCC3)c1)CC1(CCC1)O2 [Example 500, 1′-cyclopentyl-N-((1S,2R)-3-(((4S)-6-ethyl-3,4-dihydrospiro[chromene-2,1′-cyclobutan]-4-yl)amino)-2-hydroxy-1-((2-methyl-1,3-thiazol-4-yl)methyl)propyl)-2′-oxo-1′,2′-dihydro-2,3′-bipyridine-5′-carboxamide]
CC(C)n1cc(C(=O)N[C@@H](Cc2ccccc2)[C@H](O)CN[C@H]2CC(C)(C)Cc3sc(CC(C)(C)C)cc32)cc(-c2ccccn2)c1=O [Example 501, N-((1S,2R)-3-(((4S)-2-(2,2-dimethylpropyl)-6,6-dimethyl-4,5,6,7-tetrahydro-1-benzothien-4-yl)amino)-2-hydroxy-1-(phenylmethyl)propyl)-1′-(1-methylethyl)-2′-oxo-1′,2′-dihydro-2,3′-bipyridine-5′-carboxamide]
Cc1cnc2c(c1)[C@@H](NC[C@@H](O)[C@H](Cc1ccccc1)NC(=O)C1CCOCC1)CC1(CCC1)C2 [Example 502, N-((1S,2R)-2-hydroxy-3-(((5′S)-3′-methyl-5′,8′-dihydro-6′H-spiro[cyclobutane-1,7′-quinolin]-5′-yl)amino)-1-(phenylmethyl)propyl)tetrahydro-2H-pyran-4-carboxamide]
Cc1cnc2c(c1)[C@@H](NC[C@@H](O)[C@H](Cc1cc(F)cc(F)c1)NC(=O)C1CCOCC1)CC(C)(C)C2 [Example 503, N-((1S,2R)-1-((3,5-difluorophenyl)methyl)-2-hydroxy-3-(((5S)-3,7,7-trimethyl-5,6,7,8-tetrahydro-5-quinolinyl)amino)propyl)tetrahydro-2H-pyran-4-carboxamide]
Cc1cnc2c(c1)[C@@H](NC[C@@H](O)[C@H](Cc1ccccc1)NC(=O)C1CCOCC1)CC(C)(C)C2 [Example 504, N-((1S,2R)-2-hydroxy-1-(phenylmethyl)-3-(((5S)-3,7,7-trimethyl-5,6,7,8-tetrahydro-5-quinolinyl)amino)propyl)tetrahydro-2H-pyran-4-carboxamide]
COCCNc1ccc2c(c1)[C@@H](NC[C@@H](O)[C@H](Cc1ccccc1)NC(=O)c1cc(-c3ccccn3)c(=O)n(C3CCCC3)c1)CC(C)(C)C2=O [Example 505, 1′-cyclopentyl-N-((1S,2R)-3-(((1S)-3,3-dimethyl-7-((2-(methyloxy)ethyl)amino)-4-oxo-1,2,3,4-tetrahydro-1-naphthalenyl)amino)-2-hydroxy-1-(phenylmethyl)propyl)-2′-oxo-1′,2′-dihydro-2,3′-bipyridine-5′-carboxamide]
COCCNc1ccc2c(c1)[C@@H](NC[C@@H](O)[C@@H](Cc1ccccc1)NC(=O)c1cc(-c3ccccn3)c(=O)n(C3CCCC3)c1)CC(C)(C)C2=O [Example 507, 1′-cyclopentyl-N-((1R,2R)-3-(((1S)-3,3-dimethyl-7-((2-(methyloxy)ethyl)amino)-4-oxo-1,2,3,4-tetrahydro-1-naphthalenyl)amino)-2-hydroxy-1-(phenylmethyl)propyl)-2′-oxo-1′,2′-dihydro-2,3′-bipyridine-5′-carboxamide]
CCc1cc2c(s1)CC1(CCC1)C[C@@H]2NC[C@@H](O)[C@H](Cc1ccccc1)NC(=O)c1cc(-c2ccccn2)c(=O)n(C(C)C)c1 [Example 508, N-((1S,2R)-3-(((4S)-2-ethyl-4,7-dihydro-5H-spiro[1-benzothiophene-6,1′-cyclobutan]-4-yl)amino)-2-hydroxy-1-(phenylmethyl)propyl)-1′-(1-methylethyl)-2′-oxo-1′,2′-dihydro-2,3′-bipyridine-5′-carboxamide]
Cc1cnc2c(c1)[C@@H](NC[C@@H](O)[C@H](Cc1cc(F)cc(F)c1)NC(=O)[C@@H]1CCOC1)CC1(CCC1)C2 [Example 509, (3R)-N-((1S,2R)-1-((3,5-difluorophenyl)methyl)-2-hydroxy-3-(((5′S)-3′-methyl-5′,8′-dihydro-6′H-spiro[cyclobutane-1,7′-quinolin]-5′-yl)amino)propyl)tetrahydro-3-furancarboxamide]
Cc1cnc2c(c1)[C@@H](NC[C@@H](O)[C@H](Cc1cc(F)cc(F)c1)NC(=O)C1CCOCC1)CC1(CCC1)C2 [Example 510, N-((1S,2R)-1-((3,5-difluorophenyl)methyl)-2-hydroxy-3-(((5′S)-3′-methyl-5′,8′-dihydro-6′H-spiro[cyclobutane-1,7′-quinolin]-5′-yl)amino)propyl)tetrahydro-2H-pyran-4-carboxamide]
CCc1ccc2c(c1)[C@@H](NC[C@@H](O)[C@H](Cc1ccccc1)NC(=O)[C@H]1CN(C(=O)c3cccc(C)c3)CCO1)CC1(CCC1)O2 [Example 511, (2R)-N-((1S,2R)-3-(((4S)-6-ethyl-3,4-dihydrospiro[chromene-2,1′-cyclobutan]-4-yl)amino)-2-hydroxy-1-(phenylmethyl)propyl)-4-((3-methylphenyl)carbonyl)-2-morpholinecarboxamide]
CC1(C)Oc2ncccc2[C@H]1NC[C@@H](O)[C@H](Cc1ccccc1)NC(=O)c1cc(-c2ccccn2)c(=O)n(C2CCCC2)c1 [Example 512, 1′-cyclopentyl-N-((1S,2R)-3-(((3R)-2,2-dimethyl-2,3-dihydrofuro[2,3-b]pyridin-3-yl)amino)-2-hydroxy-1-(phenylmethyl)propyl)-2′-oxo-1′,2′-dihydro-2,3′-bipyridine-5′-carboxamide]
CC1(C)Oc2ncccc2[C@@H]1NC[C@@H](O)[C@H](Cc1ccccc1)NC(=O)c1cc(C2=CC=CCN2)c(=O)n(C2CCCC2)c1 [Example 513, 1′-cyclopentyl-N-((1S,2R)-3-(((3S)-2,2-dimethyl-2,3-dihydrofuro[2,3-b]pyridin-3-yl)amino)-2-hydroxy-1-(phenylmethyl)propyl)-2′-oxo-1,2′-dihydro-2,3′-bipyridine-5′-carboxamide]
CCc1cc2c(s1)CC(C)(C)C[C@@H]2NC[C@@H](O)[C@H](Cc1ccccc1)NC(=O)[C@@H]1CN(C(=O)c2cccc(C)c2)CCO1 [Example 514, (2S)-N-((1S,2R)-3-(((4S)-2-ethyl-6,6-dimethyl-4,5,6,7-tetrahydro-1-benzothien-4-yl)amino)-2-hydroxy-1-(phenylmethyl)propyl)-4-((3-methylphenyl)carbonyl)-2-morpholinecarboxamide]
CCc1cc2c(s1)CC(C)(C)C[C@@H]2NC[C@@H](O)[C@H](Cc1ccccc1)NC(=O)[C@H]1CN(C(=O)c2cccc(C)c2)CCO1 [Example 515, (2R)-N-((1S,2R)-3-(((4S)-2-ethyl-6,6-dimethyl-4,5,6,7-tetrahydro-1-benzothien-4-yl)amino)-2-hydroxy-1-(phenylmethyl)propyl)-4-((3-methylphenyl)carbonyl)-2-morpholinecarboxamide]
CC1(C)Cc2ccc(O[C@H]3CCOC3)cc2[C@@H](NC[C@@H](O)[C@H](Cc2ccccc2)NC(=O)[C@H]2CCC(=O)O2)C1 [Example 516, (2R)-N-((1S,2R)-3-(((1S)-3,3-dimethyl-7-((3S)-tetrahydro-3-furanyloxy)-1,2,3,4-tetrahydro-1-naphthalenyl)amino)-2-hydroxy-1-(phenyl-methyl)propyl)-5-oxotetrahydro-2-furancarboxamide]
CC1(C)Cc2ccc(O[C@H]3CCOC3)cc2[C@@H](NC[C@@H](O)[C@H](Cc2ccccc2)NC(=O)[C@@H]2CCC(=O)O2)C1 [Example 517, (2S)-N-((1S,2R)-3-(((1S)-3,3-dimethyl-7-((3S)-tetrahydro-3-furanyloxy)-1,2,3,4-tetrahydro-1-naphthalenyl)amino)-2-hydroxy-1-(phenyl-methyl)propyl)-5-oxotetrahydro-2-furancarboxamide]
CC1(C)Cc2ccc(O[C@H]3CCOC3)cc2[C@@H](NC[C@@H](O)[C@H](Cc2ccccc2)NC(=O)c2ccc(=O)n(C3CCCC3)c2)C1 [Example 518, 1-cyclopentyl-N-((1S,2R)-3-(((1S)-3,3-dimethyl-7-((3S)-tetrahydro-3-furanyloxy)-1,2,3,4-tetrahydro-1-naphthalenyl)amino)-2-hydroxy-1-(phenylmethyl)propyl)-6-oxo-1,6-dihydro-3-pyridinecarboxamide]
CC1(C)Cc2ccc(O[C@H]3CCOC3)cc2[C@@H](NC[C@@H](O)[C@H](Cc2ccccc2)NC(=O)c2cc(-c3ccccn3)c(=O)n(C3CCCC3)c2)C1 [Example 519, 1′-cyclopentyl-N-((1S,2R)-3-(((1S)-3,3-dimethyl-7-((3S)-tetrahydro-3-furanyloxy)-1,2,3,4-tetrahydro-1-naphthalenyl)amino)-2-hydroxy-1-(phenylmethyl)propyl)-2′-oxo-1′,2′-dihydro-2,3′-bipyridine-5′-carboxamide]
CCc1ccc2c(c1)[C@@H](NC[C@@H](O)[C@H](Cc1ccccc1)NC(=O)[C@@H]1CN(C(=O)N3CCO[C@@H](C)C3)CCO1)CC1(CCC1)O2 [Example 521, (2S)-N-((1S,2R)-3-(((4S)-6-ethyl-3,4-dihydrospiro[chromene-2,1′-cyclobutan]-4-yl)amino)-2-hydroxy-1-(phenylmethyl)propyl)-4-(((2S)-2-methyl-4-morpholinyl)carbonyl)-2-morpholinecarboxamide]
CC(C)(C)Cc1cnc2c(c1)[C@@H](NC[C@@H](O)[C@H](Cc1ccccc1)NC(=O)c1cc(C3CCCCO3)c(=O)n(C3CCCC3)c1)CC1(CCC1)O2 (stereo partly drawn) [Example 522, 1-cyclopentyl-N-((1S,2R)-3-(((4′S)-6′-(2,2-dimethyl-propyl)-3′,4′-dihydrospiro[cyclobutane-1,2′-pyrano[2,3-b]pyridin]-4′-yl)amino)-2-hydroxy-1-(phenyl-methyl)propyl)-6-oxo-5-(tetrahydro-2H-pyran-2-yl)-1,6-dihydro-3-pyridinecarboxamide]
